From patent publication US20250374927A1, “HERBICIDAL COMBINATIONS AND A METHOD FOR CONTROLLING UNDESIRED VEGETATION” (UPL Mauritius Limited, priority 2022, published 2025)

Test system: Borreria verticillata
Experiment: Post-emergence herbicidal efficacy of L-glufosinate ammonium, additional herbicides and their combinations (observed vs Colby expected)
Type: in vivo
Experimental: Methodology: Trials were carried out to evaluate the efficacy of the combination comprising L-glufosinate ammonium and the additional herbicides on Spermacoce genus weeds.
The soil used was sandy clay loam-sand: 68.0%; silt: 8.0%; clay: 24.0%.
All treatments were in 4 replications per treatment with a spray volume of about 150 L/ha.
Efficacy Evaluation: The expected efficacy of the combination comprising L-glufosinate ammonium and additional herbicides was calculated using the well-established Colby method.
In the Colby method, the expected (or predicted) response of a combination of herbicides is calculated by taking the product of the observed response for each individual component of the combination when applied alone, divided by 100, and subtracting this value from the sum of the observed response for each component when applied alone. An unexpected enhancement in efficacy of the combination is then determined by comparing the observed response of the combination to the expected (or predicted) response as calculated from the observed response of each individual component alone. If the observed response of the combination is greater than the expected (or predicted) response, or stated conversely, if the difference between the observed and expected response is greater than zero, then the combination is said to be synergistic or unexpectedly effective (Colby, S. R., Weeds, 1967(15), p. 20-22). The Colby method requires only a single dose of each herbicide applied alone and the mixture of both doses. The formula used to calculate the expected efficacy (EE) which was compared with the observed efficacy (OE) to determine the efficacy of the present disclosure is explained hereinbelow:
The expected efficacy for a combination of two active ingredients is as follows:
The expected efficacy for a combination of three active ingredients is as follows: […]

## C[N+](C)(C)CCO.O=C([O-])COc1ccc(Cl)cc1Cl [2,4-D choline, 2,4-dichlorophenoxyacetic acid (2,4-D) choline]
7 DAA, 137 g a.i./ha, Example 9
  Observed efficacy (%) of 2,4-D choline (137 g a.i./ha): 30%
7 DAA, 228 g a.i./ha, Example 10
  Observed efficacy (%) of 2,4-D choline (228 g a.i./ha): 30%

## COc1c(Cl)ccc(Cl)c1C(=O)O [Dicamba]
7 DAA, 228 g a.i./ha, Example 1
  Observed efficacy (%) of Dicamba (228 g a.i./ha): 45%
28 DAA, 228 g a.i./ha, Example 1
  Observed efficacy (%) of Dicamba (228 g a.i./ha): 40%

## COc1c(Cl)ccc(-c2nc(C(=O)OCc3ccccc3)c(Cl)c(N)c2F)c1F [Florpyrauxifen-benzyl]
7 DAA, Example 2
  Observed efficacy (%) of Florpyrauxifen-benzyl (15 g a.i./ha): 30%
28 DAA, Example 2
  Observed efficacy (%) of Florpyrauxifen-benzyl (15 g a.i./ha): 20%

## COCc1cnc(C2=NC(C)(C(C)C)C(=O)N2)c(C(=O)O)c1 (stereo not drawn) [Imazamox]
3 DAA, 21 g a.i./ha, Example 6
  Observed efficacy (%) of Imazamox (21 g a.i./ha): 10%

## Cc1cnc(C2=NC(=O)C(C)(C(C)C)N2)c(C(=O)O)c1 (stereo not drawn) [Imazapic]
3 DAA, Example 7
  Observed efficacy (%) of Imazapic (59 g a.i./ha): 10%
7 DAA, Example 7
  Observed efficacy (%) of Imazapic (59 g a.i./ha): 20%
14 DAA, Example 7
  Observed efficacy (%) of Imazapic (59 g a.i./ha): 35%
21 DAA, Example 7
  Observed efficacy (%) of Imazapic (59 g a.i./ha): 30%
28 DAA, Example 7
  Observed efficacy (%) of Imazapic (59 g a.i./ha): 40%
35 DAA, Example 7
  Observed efficacy (%) of Imazapic (59 g a.i./ha): 60%

## CP(=O)(O)CC[C@H](N)C(=O)O.N [L-glufosinate ammonium]
3 DAA, Example 6
  Observed efficacy (%) of L-glufosinate ammonium (Glufosinate-P-ammonium) (150 g a.i./ha): 55%
3 DAA, Example 7
  Observed efficacy (%) of L-glufosinate ammonium (Glufosinate-P-ammonium) (150 g a.i./ha): 50%
3 DAA, Example 8
  Observed efficacy (%) of L-glufosinate ammonium (Glufosinate-P-ammonium) (150 g a.i./ha): 50%
7 DAA, Example 1
  Observed efficacy (%) of L-glufosinate ammonium (Glufosinate-P-ammonium) (150 g a.i./ha): 65%
7 DAA, Example 2
  Observed efficacy (%) of L-glufosinate ammonium (Glufosinate-P-ammonium) (150 g a.i./ha): 65%
7 DAA, Example 3
  Observed efficacy (%) of L-glufosinate ammonium (Glufosinate-P-ammonium) (150 g a.i./ha): 85%
7 DAA, Example 5
  Observed efficacy (%) of L-glufosinate ammonium (Glufosinate-P-ammonium) (150 g a.i./ha): 90%
7 DAA, Example 7
  Observed efficacy (%) of L-glufosinate ammonium (Glufosinate-P-ammonium) (150 g a.i./ha): 80%
7 DAA, Example 8
  Observed efficacy (%) of L-glufosinate ammonium (Glufosinate-P-ammonium) (150 g a.i./ha): 80%
14 DAA, Example 3
  Observed efficacy (%) of L-glufosinate ammonium (Glufosinate-P-ammonium) (150 g a.i./ha): 80%
14 DAA, Example 5
  Observed efficacy (%) of L-glufosinate ammonium (Glufosinate-P-ammonium) (150 g a.i./ha): 80%
14 DAA, Example 7
  Observed efficacy (%) of L-glufosinate ammonium (Glufosinate-P-ammonium) (150 g a.i./ha): 95%
14 DAA, Example 8
  Observed efficacy (%) of L-glufosinate ammonium (Glufosinate-P-ammonium) (150 g a.i./ha): 95%
21 DAA, Example 7
  Observed efficacy (%) of L-glufosinate ammonium (Glufosinate-P-ammonium) (150 g a.i./ha): 90%
21 DAA, Example 8
  Observed efficacy (%) of L-glufosinate ammonium (Glufosinate-P-ammonium) (150 g a.i./ha): 90%
28 DAA, Example 1
  Observed efficacy (%) of L-glufosinate ammonium (Glufosinate-P-ammonium) (150 g a.i./ha): 95%
28 DAA, Example 2
  Observed efficacy (%) of L-glufosinate ammonium (Glufosinate-P-ammonium) (150 g a.i./ha): 95%
28 DAA, Example 4
  Observed efficacy (%) of L-glufosinate ammonium (Glufosinate-P-ammonium) (150 g a.i./ha): 90%
28 DAA, Example 7
  Observed efficacy (%) of L-glufosinate ammonium (Glufosinate-P-ammonium) (150 g a.i./ha): 90%
28 DAA, Example 8
  Observed efficacy (%) of L-glufosinate ammonium (Glufosinate-P-ammonium) (150 g a.i./ha): 90%
35 DAA, Example 4
  Observed efficacy (%) of L-glufosinate ammonium (Glufosinate-P-ammonium) (150 g a.i./ha): 85%
35 DAA, Example 7
  Observed efficacy (%) of L-glufosinate ammonium (Glufosinate-P-ammonium) (150 g a.i./ha): 85%
35 DAA, Example 8
  Observed efficacy (%) of L-glufosinate ammonium (Glufosinate-P-ammonium) (150 g a.i./ha): 85%

## CS(=O)(=O)c1ccc(C(=O)C2C(=O)CCCC2=O)c([N+](=O)[O-])c1 [Mesotrione]
28 DAA, Example 4
  Observed efficacy (%) of Mesotrione (360 g a.i./ha): 75%
35 DAA, Example 4
  Observed efficacy (%) of Mesotrione (360 g a.i./ha): 75%

## CSc1nnc(C(C)(C)C)c(=O)n1N [Metribuzin]
7 DAA, Example 5
  Observed efficacy (%) of Metribuzin (360 g a.i./ha): 90%
14 DAA, Example 5
  Observed efficacy (%) of Metribuzin (360 g a.i./ha): 30%

## CCOc1cc(Oc2ccc(C(F)(F)F)cc2Cl)ccc1[N+](=O)[O-] [Oxyfluorfen]
7 DAA, Example 3
  Observed efficacy (%) of Oxyfluorfen (430 g a.i./ha): 65%
14 DAA, Example 3
  Observed efficacy (%) of Oxyfluorfen (430 g a.i./ha): 70%
